Source: patent publication US10179128B2, “Regimens for treating and preventing lysosomal disorders and degenerative disorders of the central nervous system” (Amicus Therapeutics, Inc., priority 2015, dated 2019)
Residue numbers refer to the chain shown, from its start. Where a name gives a salt, the structure may show the parent alone.

What was measured:
[1] = molecular target: T1, recombinant human GCase (rhGCase) (Homo sapiens, UniProt P04062); assay: In vitro thermal stability assay of rhGCase (SYPRO Orange fluorescence); format: binding; conditions: 100 μM compound, neutral pH; enzyme alone approximately 53° C.
T1 sequence (P04062 40-536): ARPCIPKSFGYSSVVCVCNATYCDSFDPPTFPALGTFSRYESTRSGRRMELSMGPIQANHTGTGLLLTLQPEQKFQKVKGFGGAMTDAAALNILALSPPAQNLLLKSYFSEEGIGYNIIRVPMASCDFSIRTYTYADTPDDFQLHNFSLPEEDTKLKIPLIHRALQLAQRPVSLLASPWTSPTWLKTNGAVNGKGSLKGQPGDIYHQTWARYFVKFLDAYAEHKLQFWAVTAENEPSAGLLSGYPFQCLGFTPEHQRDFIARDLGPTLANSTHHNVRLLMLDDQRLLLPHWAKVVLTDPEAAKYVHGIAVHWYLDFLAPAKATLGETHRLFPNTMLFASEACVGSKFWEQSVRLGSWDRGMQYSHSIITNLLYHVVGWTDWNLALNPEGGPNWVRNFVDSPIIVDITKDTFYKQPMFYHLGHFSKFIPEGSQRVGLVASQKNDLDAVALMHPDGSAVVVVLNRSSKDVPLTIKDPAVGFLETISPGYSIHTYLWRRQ
Source text: A dye (SYPRO® Orange) that fluoresces when it binds to hydrophobic regions of enzyme was used to assess stability, because unstable enzyme that loses its native conformation likely exposes internal hydrophobic amino acids, leading to an increase in fluorescence.

[2] = Blood-brain barrier penetration in mice, oral 30 mg/kg FBE; format: in vivo; conditions: for Kp / Cmax: mouse, oral, 30 mg/kg; for Kp: brain and plasma, read-out: Barin/Plasma Cmax (%); for Cmax: plasma
Source text: The ability of a drug to penetrate the blood-brain barrier can be an important function. Without the capability of penetrating into the brain, the drug will not likely have a therapeutic effect in tissues in the brain.

rhGCase = molecular target: T2, rhGCase (Homo sapiens, UniProt P04062); conditions: rats
T2 sequence (P04062 40-536): T1 sequence (P04062 40-536)

[3] = Brain tissue washout / efflux half-life; format: in vivo
Source text: To evaluate the potential therapeutic effect of a chaperone, the washout period can be examined to determine the length of time required to washout the inhibitor. Otherwise, enzyme that is successfully trafficked to the lysosome may not have optimal functionality because the chaperone, which also functions as a competitive inhibitor, can continue to compete with the substrate for the enzyme active site.

[4] = Bioavailability (plasma as percent oral dose); format: in vivo
pKa = format: physicochemical
GCase N370S = molecular target: T3, GCase N370S (Homo sapiens, UniProt P04062, N409S); assay: cell-based
T3 sequence (P04062 40-536 N409S): T1 sequence (P04062 40-536) with N370S

GCase = molecular target: T4, GCase (Mus musculus, UniProt P17439); assay: ED50 in brain; format: in vivo
T4 construct: from tissue; host or cells: brain
T4 sequence (P17439 20-515): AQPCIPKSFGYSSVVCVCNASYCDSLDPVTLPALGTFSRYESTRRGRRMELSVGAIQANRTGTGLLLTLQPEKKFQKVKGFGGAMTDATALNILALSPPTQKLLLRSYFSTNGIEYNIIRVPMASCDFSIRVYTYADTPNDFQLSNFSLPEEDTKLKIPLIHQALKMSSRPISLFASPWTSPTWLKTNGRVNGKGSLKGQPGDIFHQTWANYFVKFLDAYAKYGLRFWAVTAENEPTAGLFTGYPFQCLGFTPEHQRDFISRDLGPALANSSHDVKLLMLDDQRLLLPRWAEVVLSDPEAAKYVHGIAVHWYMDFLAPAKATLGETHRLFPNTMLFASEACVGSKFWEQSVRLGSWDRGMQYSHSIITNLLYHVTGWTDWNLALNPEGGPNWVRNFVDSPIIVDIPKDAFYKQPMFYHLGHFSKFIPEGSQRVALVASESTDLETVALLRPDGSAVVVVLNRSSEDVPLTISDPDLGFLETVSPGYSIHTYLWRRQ

L444P mice [5] = assay: Example 7: daily dosing of Compound 3 in L444P mice over four weeks, fixed and ascending doses in drinking water; format: in vivo
Method: Both fixed and ascending dosing schemes were used and were administered in drinking water. Four fixed dose groups, 0.01 mg/kg FBE, 0.1 mg/kg FBE, 1 mg/kg FBE, and 10 mg/kg FBE were used. A fifth group, which used an ascending dose, was also included, and it began at 0.01 mg/kg FBE and increased by 10-fold each week, with a dose during the final week of 10 mg/kg FBE.

L444P mice [6] = assay: Comparison of Examples 6-8 in L444P mice; format: in vivo
Source text: Changes in brain, liver, and spleen GCase activity were compared across the studies of Examples 6-8. In FIGS. 20 and 21, C1 denotes the study from Example 6, C2 denotes the study from Example 7, and C3 denotes the study from Example 8.

L444P mice [7] = assay: Example 6: daily oral dosing of Compound 3 in L444P mice; format: in vivo
Method: (§1) The purpose of this study was to first confirm that the GlcSph substrate was elevated in N370S and L444P mutant mouse models.
(§2) Both compounds were administered daily via an oral route.

[8] = Blood-brain barrier penetration in rats, single 100 mg/kg FBE p.o.; format: in vivo; conditions: rat, brain and plasma, po, exposure in nM-hr, read-out: total brain exposure as % of plasma exposure
L444P mice [9] = assay: Example 8: additional dosing regimens of Compound 3 in L444P mice; format: in vivo
Method: The purpose of this study was to improve dosing choices based on data collected from Example 7. Specific tissues of L444P mice that were measured were the liver, brain, spleen, bone, marrow, and plasma. […] In Example 8, two dosing strategies were used, fixed dose and constant weekly dose. All doses were administered orally in drinking water. Fixed dose mice were given 1 mg/kg FBE either daily, two days a week, or three days a week. Constant weekly dose mice were given a total of 7 mg/kg FBE per week, either three days a week (Monday, Wednesday, Friday), two days a week (Monday, Thursday), or daily. For example, mice receiving 3 doses per week (Monday, Wednesday, Friday) would receive 2.33 mg/kg FBE in each dose, while mice receiving doses twice a week (Monday, Thursday) would receive 3.5 mg/kg FBE per dose.

N370S mice = assay: Example 6: daily oral dosing of IFG tartrate in N370S mice; format: in vivo
Method: as §1, §2

[10] = mice, oral 30 mg/kg FBE, brain tissue
[11] = all dose groups, Day 1 and Day 30 after 24-hour washout
[12] = ascending 0.01-10 mg/kg FBE dose

Which “temperature of peak fluorescence (unfolding)” value [1] does the source give for `O[C@H]1[C@H](O)CNC[C@@H]1C(F)F` [Compound 1] here?
The value was 65 °C.

What about the “Brain Cmax at 30 mg/kg” value [2, 10] of the same molecule?
The value was 9.7 µM.

And the Kp [2]?
The Kp was 0.115.

What about the Cmax [2] of the same molecule?
Its Cmax is 84.5 µM.

And the “normalized GCase activity in plasma versus rhGCase alone” value (rhGCase; 3 mg/kg oral gavage 30 minutes before IV rhGCase)?
The value was “sustained a higher normalized GCase activity in plasma longer”.

What about the “rhGCase western blot band versus no chaperone” value (rhGCase; 3 mg/kg, 5 minute and 10 minute intervals) of the same molecule?
The value was “a more intense protein band”.

And the half-life [3]?
Its half-life is roughly 1.4 h.

And the bioavailability [4]?
Its bioavailability is 106%.

What about the pKa (pKa) of the same molecule?
Its pKa is 7.1.

What about the Emax (GCase N370S) of the same molecule?
Its Emax is 106%.

What about the ED50 (GCase) of the same molecule?
The ED50 was 5.2 mg/kg.

With `Cl.O[C@H]1[C@H](O)CNC[C@@H]1C(F)F` [Compound 2] as the molecule, how does the “crossing of the blood-brain barrier” value ([2]; mice) read?
Its value is “capable of crossing the blood-brain barrier”.

And the “Brain Cmax at 30 mg/kg” value [2, 10]?
The value was 9.7 µM.

With `O=C(O)/C=C/C(=O)O.O[C@H]1[C@H](O)CNC[C@@H]1C(F)F` [Compound 3] as the molecule, how does the “GCase activity in brain, liver and spleen versus vehicle” value (L444P mice [5]; 0.01 mg/kg FBE and 0.1 mg/kg FBE) read?
Its value is “did not show significant differences”.

And the “brain GlcSph versus vehicle” value (L444P mice [5]; 1 mg/kg FBE)?
Its value is “increase in GlcSph”.

What about the “liver GlcSph versus vehicle” value (L444P mice [5]; 1 mg/kg FBE) of the same molecule?
Its value is “decrease in GlcSph”.

What about the “spleen GlcSph versus vehicle” value (L444P mice [5]; 1 mg/kg FBE) of the same molecule?
The value was “decrease in GlcSph”.

What about the “increase in brain GCase activity versus vehicle” value (L444P mice [5]; 1 mg/kg FBE daily) of the same molecule?
Its value is “almost a two-fold increase”.

And the “increase in liver GCase activity versus vehicle” value (L444P mice [5]; 1 mg/kg FBE daily)?
The value was 5 fold.

And the “increase in spleen GCase activity versus vehicle” value (L444P mice [5]; 1 mg/kg FBE daily)?
Its value is “two-fold increase”.

What about the “brain GlcCer concentration versus vehicle” value (L444P mice [5]; 1 mg/kg FBE, after 30 days) of the same molecule?
Its value is “No significant difference”.

What about the “plasma GlcCer versus vehicle” value (L444P mice [5]; [11]) of the same molecule?
Its value is “no significant increases or decreases”.

And the “plasma GlcSph versus vehicle” value (L444P mice [5]; [11])?
Its value is “no significant increases or decreases”.

And the “liver GlcCer concentration versus vehicle” value (L444P mice [5]; all dose groups, after 30 days)?
The value was “No significant differences”.

What about the “brain GlcSph concentration versus vehicle” value (L444P mice [5]; [12]) of the same molecule?
The value was “increase in substrate concentration”.

What about the “increase in brain GCase activity versus vehicle” value (L444P mice [5]; [12]) of the same molecule?
The value was “about three-fold”.

And the “increase in liver GCase activity versus vehicle” value (L444P mice [5]; [12])?
Its value is “about 8 fold”.

What about the “increase in spleen GCase activity versus vehicle” value (L444P mice [5]; [12]) of the same molecule?
The value was “about 4 fold”.

And the “spleen GlcSph concentration versus vehicle” value (L444P mice [5]; [12])?
Its value is “reduction in concentration”.

And the “brain GlcCer concentration versus vehicle” value (L444P mice [5]; ascending dose, after 30 days)?
Its value is “increased”.

What about the “brain GCase activity” value (L444P mice [6]; 0-10 mg/kg FBE ascending dose, studies of Examples 6 and 7) of the same molecule?
The value was “increased”.

What about the “brain GCase activity” value (L444P mice [6]; 1 mg/kg FBE dose, Example 7 and Example 8) of the same molecule?
The value was “increased”.

What about the “liver GCase activity” value (L444P mice [6]; 1 mg/kg FBE dosing regimens, Example 7 and Example 8) of the same molecule?
Its value is “elevated”.

And the “brain GlcSph level versus vehicle” value (L444P mice [6]; 10 mg/kg FBE)?
The value was “increased level of GlcSph over the vehicle”.

And the “brain GlcSph level versus vehicle” value (L444P mice [6]; ascending dose (0-10 mg/kg FBE))?
The value was “increased level of GlcSph over the vehicle”.

And the “GlcSph substrate level change in the spleen” value (L444P mice [6]; ascending dose (0-10 mg/kg FBE) and 1 mg/kg FBE dose, Examples 6-8)?
The value was “significant”.

And the “liver GCase activity” value (L444P mice [6]; ascending dose, Example 6 and Example 7)?
The value was “higher GCase activity”.

What about the “enhancement of GCase activity in liver” value (L444P mice [7]; 10 mg/kg FBE daily) of the same molecule?
The value was 7.6 fold.

And the “GlcSph in spleen versus control” value (L444P mice [7]; 10 mg/kg FBE daily oral)?
The value was “significant reduction of GlcSph”.

And the “enhancement of GCase activity in brain” value (L444P mice [7]; 10 mg/kg FBE daily, almost equivalent to wild-type activity)?
The value was 2.8 fold.

And the Kp [8]?
Its Kp is 0.85.

And the “brain GCase activity versus vehicle” value (L444P mice [9]; 1 mg/kg FBE daily dose)?
The value was “increased and was significant”.

And the “liver GlcSph concentration versus vehicle” value (L444P mice [9]; 1 mg/kg FBE daily dose)?
Its value is “significant reduction”.

What about the “spleen GlcSph concentration versus vehicle” value (L444P mice [9]; 1 mg/kg FBE daily dose) of the same molecule?
The value was “significant reduction”.

What about the “plasma concentration of GlcCer” value (L444P mice [9]; across all doses) of the same molecule?
The value was “no significant differences”.

With `OC[C@H]1CNC[C@@H](O)[C@@H]1O` [IFG tartrate, isofagomine tartrate] as the molecule, how does the “crossing of the blood-brain barrier” value ([2]; mice) read?
The value was “capable of crossing the blood-brain barrier”.

And the “peak compound concentration in brain” value ([2]; mice, oral 30 mg/kg FBE, brain tissue, value in nM)?
Its value is 30 nM.

What about the “GlcSph in liver versus control” value (N370S mice; 100 mg/kg FBE daily oral) of the same molecule?
The value was “reduction in GlcSph substrate”.

And the “GlcSph in spleen versus control” value (N370S mice; 100 mg/kg FBE daily oral)?
The value was “significant reduction of GlcSph”.

And the “reduction in bone GlcSph concentration” value (N370S mice; bone)?
Its value is 31%.

And the “reduction of GlcSph in marrow” value (N370S mice; marrow)?
Its value is 45%.

And the Kp [8]?
The Kp was 0.29.

Which “Brain Cmax at 30 mg/kg” value [2, 10] does the source give for `OC[C@H]1CNC[C@@H](O)[C@@H]1O` [Isofagomine, isofagomine, reference compound] here?
Its value is 0.3 µM.

And the Kp [2]?
The Kp was 0.0165.

What about the Cmax [2] of the same molecule?
Its Cmax is 17.5 µM.

What about the “Brain tissue efflux (half-life)” value [3] of the same molecule?
Its value is 2.9 h.

And the half-life [3]?
The half-life was roughly 3 h.

What about the bioavailability [4] of the same molecule?
Its bioavailability is 53%.

What about the pKa (pKa) of the same molecule?
Its pKa is 8.4.

What about the ED50 (GCase) of the same molecule?
The ED50 was 56.4 mg/kg.
